Laboratory results taken from US6342368B1, “WD-40-derived peptides and uses thereof” (The Board of Trustees of the Leland Stanford Junior …, priority 1994, dated 2002).
Values joined by “and” are separate entries in the source; they are usually repeats but may differ in a detail not shown here. Identical values can stand only once. “Also recorded” adds a separate entry of the source.

What was measured:
βPKC [1] = target: T1, βPKC (Rattus norvegicus, UniProt P68403); assay: PKC overlay of peptides immobilized on nitrocellulose (slot blot); type: binding; conditions: for binding of activated PKC to immobilized peptide: 5 nM rat brain PKC with PS; for binding of activated PKC to immobilized peptide / lowest peptide amount at which activated PKC bound: DG and calcium; for binding of unactivated PKC to immobilized peptide: 5 nM rat brain PKC without PS, DG, calcium; for lowest peptide amount at which activated PKC bound: PKC with PS, 0.5-10.0 μmole peptide applied
T1 construct: All the solutions contained 5 nM rat brain PKC; from tissue; host or cells: rat brain
T1 sequence (P68403 whole entry): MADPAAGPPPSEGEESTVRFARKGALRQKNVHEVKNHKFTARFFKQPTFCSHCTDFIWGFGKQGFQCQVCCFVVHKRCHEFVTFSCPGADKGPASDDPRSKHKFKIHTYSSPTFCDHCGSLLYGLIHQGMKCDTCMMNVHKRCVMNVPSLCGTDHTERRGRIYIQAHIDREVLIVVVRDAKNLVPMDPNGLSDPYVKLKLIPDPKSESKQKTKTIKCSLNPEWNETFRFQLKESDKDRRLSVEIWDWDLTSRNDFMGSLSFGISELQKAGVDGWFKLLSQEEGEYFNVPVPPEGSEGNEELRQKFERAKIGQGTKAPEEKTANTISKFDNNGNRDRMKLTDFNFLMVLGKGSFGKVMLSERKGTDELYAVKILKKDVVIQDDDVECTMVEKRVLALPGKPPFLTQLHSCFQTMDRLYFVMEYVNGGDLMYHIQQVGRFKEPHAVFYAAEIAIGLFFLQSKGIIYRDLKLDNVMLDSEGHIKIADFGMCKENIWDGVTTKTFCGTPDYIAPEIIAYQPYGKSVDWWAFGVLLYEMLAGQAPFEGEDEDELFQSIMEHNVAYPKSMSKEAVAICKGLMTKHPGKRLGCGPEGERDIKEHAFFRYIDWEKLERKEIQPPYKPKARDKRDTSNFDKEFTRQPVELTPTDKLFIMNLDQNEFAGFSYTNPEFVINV
Experimental: The binding of βPKC to peptide I (SEQ ID NO:1), peptide rVI (SEQ ID NO:7) and control peptide (SEQ ID NO:9) was assessed using a PKC overlay assay similar to that described in Example 3. Increasing amounts of peptides (0.5 μmole, 1.0 μmole, 5.0 μmole and 10.0 μmole) suspended in 20 mM NaCl were applied individually onto nitrocellulose using a slot-blot apparatus (Schleicher and Schuell, Keene, N.H.). The nitrocellulose membrane was washed three times, 15 minutes per wash, in peptide overlay buffer and incubated for two hours in peptide overlay block buffer. The membrane was cut into sections and the sections were transferred to different PKC-containing solutions and incubated for 30 minutes at room temperature. All the solutions contained 5 nM rat brain PKC in peptide overlay buffer. Some solutions additionally contained PS, DG, and calcium. The membranes were then washed three times, 15 minutes per wash, in peptide overlay buffer and incubated in peptide overlay block buffer containing anti-βPKC monoclonal antibodies (1:1000 dilution; Seikagaku Kogyo, Tokyo, Japan). After a 16 hr incubation at room temperature, the filters were washed three times, 15 minutes per wash, in peptide overlay buffer.
Binding of PKC was determined using chemiluminescence as described in Example 3, part C. Quantitation of PKC binding was carried out using a “MICRO SCAN” 1000 gel analyzer (Galai Inc., Yokneam, Israel).

Xenopus oocytes = assay: PKC-mediated Xenopus oocyte maturation (germinal vesicle breakdown, GVBD) after peptide microinjection; type: cell-based; conditions: for plateau % GVBD (fraction of oocytes reaching maturation) following insulin exposure: peptide 50 μM, 50 nl microinjected, 20 h time course
Experimental: Exposure to insulin induces maturation in Xenopus oocytes via a PKC-dependent pathway (Smith, et al., 1992). The maturation response may be quantified by monitoring the appearance of a white spot in the animal hemisphere of the oocyte, indicating germinal vesicle breakdown (GVBD) and maturation. To assess the effects of RACK1 WD-40-derived peptides on insulin-induced PKC-mediated maturation, 50 nl of a 20 mM NaCl solution containing the indicated peptides [peptide I (SEQ ID NO:1; ●), peptide rVI (SEQ ID NO:7; ▪), or injection solution (□)] (peptides at 50 μM) were microinjected into Xenopus oocytes. […] One hour following the peptide injections, the oocytes were exposed to a solution containing insulin (8.25 μg/ml) for 2 minutes (t=0). 10-15 oocytes were used for each sample.
The data, representative of three independent experiments, are expressed as the percent of oocytes with GVBD following insulin exposure and are plotted as a function of time in FIG. 5.

βPKC [2] = assay: βPKC translocation (soluble vs particulate fraction) in Xenopus oocytes; type: cell-based; conditions: peptide 50 μM microinjected; for insulin (hormone)-induced βPKC translocation: 60 min after insulin; for βPKC distribution / translocation in the absence of insulin treatment: untreated oocytes, 60 min
Experimental: Insulin causes the translocation of βPKC, but not other PKC isozymes, from a cytosolic form to a membrane-associated form, as evidenced by the relative levels of PKC in the soluble vs. the particulate fraction of oocyte homogenate. To assess the effects of RACK1 WD-40-derived peptides on insulin-induced PKC translocation, 50 nl of a 20 mM NaCl solution containing the indicated peptides were microinjected into Xenopus oocytes. The oocytes were then homogenized, and the relative amount of PKC in the soluble and particulate fractions was assayed. The protocol followed was a modification of a method described by Smith, et al. (1992).
Batches of 50 oocytes were microinjected with either peptide rVI (SEQ ID NO:7; 50 μM; lanes 3, 4), peptide I (SEQ ID NO:1; 50 μM, lanes 7, 8) or injection solution (NaCl 20 mM, lanes 1,2 and 5,6). Homogenates from each batch were prepared 60 minutes after microinjection (lanes 1-4) or 60 minutes after addition of insulin (lanes 5-8). The homogenates were centrifuged at 10,000 g for 3 minutes, the upper layer (containing fat and yolk) was removed, and the remainder was frozen at −70° C. Prior to use, the samples were thawed, 200 μl homogenization buffer was added and the samples were centrifuged at 100,000 g for 30 minutes at 4° C. The supernatants (soluble fraction) were removed and concentrated to 20 μl using “CENTRICON” concentrators (Amicon,Beverly, Mass.). The pellets (particulate fractions) were dissolved in 20 μl of homogenization buffer. The samples were resolved on an 8% SDS/PAGE gel and blotted onto nitrocellulose. The amount of PKC in each fraction was determined by Western blot using anti-βPKC antibodies (1:1000 dilution; Seikagaku Kogyo, Tokyo, Japan). Bound primary antibodies were detected by chemiluminescence as described in Example 3, part C.

δ and εPKC isozymes = assay: PKC isozyme translocation and degradation in cardiac myocytes; type: cell-based, rat
Experimental: In cardiac myocytes, norepinephrine (NE, 2 μM) causes translocation of δ and εPKC isozymes from the cytosolic to the particulate fraction. […] This peptide-induced translocation was followed by degradation of δ and εPKC isozymes.

PKC = assay: Histone type IIIs phosphorylation by PKC; type: biochemical; conditions: absence of PS, DG and calcium; peptide 10 μM
Experimental: Histone type IIIs (Sigma Chemical Company, St. Louis, Mo.) was phosphorylated by PKC (˜10 nM) in the absence (lane 1) and presence of peptide rVI (10 μM) (lanes 2 and 3) and in the presence and absence of DG (0.8 μg/ml), PS (50 μg/ml) and CaCl2 (1 mM) (lane 3). The results are expressed as percentage of control that is the amount of Histone phosphorylation by PKC in the presence of DG (0.8 μg/ml), PS (50 μg/ml) and CaCl2 (1 mM). The results are the average ± SEM of two independent experiments. PKC was first incubated with the peptide rVI (10 μM) for 15 minutes in overlay buffer as described above. Histone type IIIs (40 μg/ml) was added in Tris-HCl (20 mM), MgCl2 (20 mM), ATP (20 μM) and ([γ-^32P]ATP (5 μci/ml) with or without PS (50 μg/ml), DG (0.8 μg/ml) and CaCl2 (1 mM). Histone phosphorylation was determined by autoradiography as above.

[3] = peptide introduced into cardiac myocytes
[4] = peptide 50 μM microinjected, insulin 8.25 μg/ml

Substance	binding of activated PKC to immobilized peptide (βPKC [1])	binding of unactivated PKC to immobilized peptide (βPKC [1])	lowest peptide amount at which activated PKC bound (βPKC [1])	plateau % GVBD (fraction of oocytes reaching maturation) following insulin exposure (Xenopus oocytes; insulin 8.25 μg/ml)	insulin (hormone)-induced βPKC translocation (βPKC [2])	βPKC distribution / translocation in the absence of insulin treatment (βPKC [2])	NE-induced translocation of δ and εPKC (δ and εPKC isozymes; norepinephrine 2 μM)	degradation of PKC isozymes (δ and εPKC isozymes; [3])	translocation / distribution of δ and εPKC isozymes in the absence of hormone stimulation (δ and εPKC isozymes; [3])	delay to onset of maturation after exposure to insulin (Xenopus oocytes; [4])	time to reach GVBD plateau after insulin exposure (Xenopus oocytes; [4])	effect on insulin-induced oocyte maturation (in words) (Xenopus oocytes; peptide microinjected, insulin)	induction of PKC-mediated histone phosphorylation (PKC)
peptide I: 15-residue peptide homologous to a sequence in the sixth WD-40 repeat of RACK1; PKC antagonist (KGDYEKILVALCGGN)	bound	did not bind	5 µmol	45-50%	inhibited hormone-induced translocation; also recorded: inhibited insulin-induced βPKC translocation	did not affect βPKC distribution	inhibited	nor does it induce PKC degradation; also recorded: did not cause degradation	does not affect PKC distribution				
peptide rVI: eight amino acid peptide identical to a segment of RACK1 WD-40 repeat VI (DIINALCF)	bound	did bind	5 µmol	~100% and 95-100%	augments hormone-induced translocation	induced βPKC translocation				3 to 4 h	≤ 5 h	potentiates the effects of insulin on oocyte maturation	effective to induce PKC-mediated histone phosphorylation; also recorded: induced histone phosphorylation
